Reference: patent US11098009B2, “Amidine substituted analogues and uses thereof” (Verlyx Pharma Inc., priority 2016, dated 2021)
pIC50: −log10 of the molar value. Counter-ions that a name gives are not always drawn.

Experiments:
[1] = test system: HCT-116 cells; test: HCT assay: real-time proliferation assay using xCELLigence system; format: cell-based; conditions: xCELLigence impedance
Protocol: The compounds were evaluated in a proliferation assay using HCT-116 cells using an xCELLigence system. Briefly, the xCELLigence system monitors cellular events in real time by measuring electrical impedance across interdigitated micro-electrodes integrated on the bottom of tissue culture E-Plates. The impedance measurement provides quantitative information about the biological status of the cells, including cell number, viability, and morphology. Real-time proliferation assays were then to determine the IC50 values. All proliferation assays start 24 hours after the transfection.

[2] = test system: GalN/LPS fulminant liver injury; test: GalN/LPS fulminant liver injury model, Study b (serum ALT); format: in vivo, C57BL/6 mice; conditions: for Hepatoprotection at lower doses: 10 mg/kg (4.3 and 8.6 μmole/kg) for C2, 5 and 10 mg/kg (3.3 and 6.6 μmole/kg) for C4, 5 mg/kg (6.3 mole/kg [sic]) for C5; for Hepatoprotection in the model (low ALT activity levels following GalN/LPS): FIG. 3; for ALT: GalN-LPS 700 mg/kg - 10 μg/kg, 6 hours post injury, WFI control 5989
Protocol: (§1) Mice were maintained under 12 h light/dark cycles with unlimited access to food and water. Study was performed in 6- to 14-week old male mice. C57BL/6 mice were used. Mice are first injected with pentamidine or Example 2 compound (IP injection). […]
(§2) All doses were administered IP to six mice (n=6), 30 minutes prior to the injection of the GalN and LPS, when applicable to the group. Blood samples were collected exactly 6 hours post GalN/LPS injections, or 6.5 hours after vehicle injections.
(§3) The tested compounds were dosed IP 30 minutes prior to the co-treatment with galactosamine (GalN) and endotoxin (Lipopolysaccharide) LPS. Mice were sacrificed at 6 hours after GalN/LPS for ALT analysis. The analysis of alanine transaminase (ALT) serum levels allows the evaluation of the hepatoprotective, anti-TNF-α, anti-inflammatory and/or anti-fibrotic activity.

[3] = test system: GalN/LPS fulminant liver injury; test: GalN/LPS fulminant liver injury model, Study a (survival); format: in vivo, C57BL/6 mice
Protocol: A Galactosamine/Liposaccharide (GalN/LPS) fulminant liver injury model may be used to evaluate the anti-inflammatory, anti-TNFα and hepatoprotective properties of the compound of the description.
Mice were maintained under 12 h light/dark cycles with unlimited access to food and water. Study was performed in 6- to 14-week old male mice. C57BL/6 mice were used. Mice are first injected with pentamidine or Example 2 compound (IP injection). 30 minutes later, liver injury is induced by intraperitoneal injections of 100 μg/kg of LPS (E. coli 0111:B4) and 700 mg/kg of GalN (Sigma) dissolved in phosphate-buffered saline (PBS).
The tested compounds were be dosed IP 30-minutes prior to the co-treatment with galactosamine (GalN) and endotoxin (Lipopolysaccharide) LPS. Mice were either sacrificed at 6.5 hours after GalN/LPS for ALT analysis, or kept for longer periods to evaluate survival. The analysis of alanine transaminase (ALT) serum levels and histological observations allow the evaluation of the hepatoprotective, anti-TNF-α, anti-inflammatory and/or anti-fibrotic activity.
Survival was evaluated at two time points, i.e. 8 and 23 hours. In controls group receiving PBS prior to the GalN/LPS liver injury, no mice survived 8 hours. […] In the case of trihexamidine isethionate, all mice survived more than 23 hours with 10 mg/kg (8.6 μmole/kg) doses.

[4] = test system: GalN/LPS fulminant liver injury; test: GalN/LPS fulminant liver injury model, Study c (serum ALT); format: in vivo, C57BL/6 mice; conditions: for ALT: GalN-LPS 700 mg/kg - 10 μg/kg, 6 hours post injury, WFI control 4403
Protocol: as §1, §2, §3

[5] = test system: DSS-induced acute colitis; test: DSS-induced acute colitis in mice (Disease Activity Index); format: in vivo, C57BL/6 ELITE mice; conditions: 2.5% DSS; 2.5 and 5 mg/kg IP q.d. D1-D6, termination D7; FIG. 5
Protocol: Dextran Sulfate Sodium 2.5% stocks were prepared by adding tap water in the pre-weighed powder. DSS solutions will be changed every 3 days for all groups, i.e. on Day 1 (D1) and Day 4 (D4).
Formulations for Intraperitoneal Administration: • Vehicle: sterile double distilled water (DDW) • For Pentamidine (Penta) and Compounds 2 and 4, the compounds were dissolved in DDW and dosed at 2 mL/kg to yield the indicated doses. In-Vivo Study
Male C57BL/6 ELITE mice of ˜7-8 weeks old were used. After 5-day acclimatization period in animal facility, all mice were weighed and given tap water containing 2.5% DSS on Day 1, treatment also starts on Day 1.
Animals were dosed from D1 to D6, once daily by IP injection (2 mL/kg). Animals were terminated on D7. The Disease Activity Index (DAI) scale is based on the evaluation of different parameters characterizing experimental colitis induction and progression. Body weight, presence of gross blood in the feces and stool consistency will be recorded daily.
• Weight loss: 0=none; 1=1 to 5%; 2=5 to 10%; 3=_10 to 20%; 4=>20% • Stool consistency: 0=normal; 2=loose; 4=diarrhea • Rectal bleeding: 0=normal; 2=occult bleeding; 4=gross bleeding
On Day 7, mice will be weighed and disease scores evaluated, and then euthanized by CO2 inhalation.

[6] = Homo sapiens, HCT-116, HCT-116 cells

| pIC50 [1, 6] | Molecule | Hepatoprotection at lower doses [2] | Hepatoprotection in the model (low ALT activity levels following GalN/LPS) [2] | ALT ([2]; IP dose 5 mg/kg in WFI) | ALT ([2]; IP dose 10 mg/kg in WFI) | Disease activity index [5] | other results |
| --- | --- | --- | --- | --- | --- | --- | --- |
| 4.42 | N=C(N)c1ccc(OCCCOc2cc(OCCCOc3ccc(C(=N)N)cc3)cc(OCCCOc3ccc(C(=N)N)cc3)c2)cc1 [Compound 4, Tripropamidine Formate] | Significant hepatoprotection | hepatoprotective | 731 IU/L | – | reduced the disease activity index | Hepatoprotection in the model (low ALT activity levels following GalN/LPS) ([4]; Study c, FIG. 4): dose-dependent hepatoprotection; Hepatoprotection at stated doses ([4]; Study c, 0.625 mg/kg, 1.25 mg/kg and 2.5 mg/kg IP): Significant hepatoprotection; ALT ([4]; Study c, IP dose 0.625 mg/kg in WFI): 1755 IU/L; ALT ([4]; Study c, IP dose 1.25 mg/kg in WFI): 1090 IU/L; ALT ([4]; Study c, IP dose 2.5 mg/kg in WFI): 555 IU/L |
| 5.18 | N=C(N)c1ccc(OCCCCCCCCOc2cc(OCCCCCCCCOc3ccc(C(=N)N)cc3)cc(OCCCCCCCCOc3ccc(C(=N)N)cc3)c2)cc1 [Compound 3, Trioctamidine Isethionate] | – | – | – | – | – | – |

Further lines, the molecule ahead of its results:

| Molecule | pIC50 [1, 6] | Hepatoprotection at lower doses [2] | Hepatoprotection in the model (low ALT activity levels following GalN/LPS) [2] | ALT ([2]; IP dose 5 mg/kg in WFI) | ALT ([2]; IP dose 10 mg/kg in WFI) | Disease activity index [5] | other results |
| --- | --- | --- | --- | --- | --- | --- | --- |
| Triamidine Formate (Chain Average Mn 1000) [Compound 5] | – | Significant hepatoprotection | hepatoprotective | 1072 IU/L | 689 IU/L | – | HCT-116 IC50 ([1]; HCT-116 cells): ∞ |
| N=C(N)c1ccc(OCCCCCOc2ccc(C(=N)N)cc2)cc1 [Pentamidine, pentamidine, reference compound] | – | – | – | – | – | – | Hepatoprotection (positive control) ([2]; 50 mg/kg (84 μmole/kg)): benefited from hepatoprotective properties; ALT ([2]; IP dose 50 mg/kg in WFI): 306 IU/L; Survival at 8 hours post GalN/LPS ([3]; 25 mg/kg IP 30 min before GalN/LPS): only the 40 mg/kg (67 μmole/kg) group benefited; Survival at 8 hours post GalN/LPS ([3]; 40 mg/kg (67 μmole/kg) IP 30 min before GalN/LPS, PBS controls: no mice survived 8 hours): benefited from hepatoprotective properties; Survival at 23 hours post GalN/LPS ([3]; 25 and 40 mg/kg IP 30 min before GalN/LPS): none survived; Hepatoprotection (positive control) ([4]; Study c text, 50 mg/kg (84 μmole/kg)): benefited from hepatoprotective properties |
| N=C(N)c1ccc(OCCCCCCOc2cc(OCCCCCCOc3ccc(C(=N)N)cc3)cc(OCCCCCCOc3ccc(C(=N)N)cc3)c2)cc1 [Compound 1, Trihexamidine Formate] | 5.72 | – | – | – | – | – | – |
| N=C(N)c1ccc(OCCCCCCOc2cc(OCCCCCCOc3ccc(C(=N)N)cc3)cc(OCCCCCCOc3ccc(C(=N)N)cc3)c2)cc1 [Compound 2, Trihexamidine Isethionate] | – | Significant hepatoprotection | hepatoprotective | 2184 IU/L | 890 IU/L | reduced the disease activity index | pIC50 ([1]; HCT-116 cells): 5.58; Survival (all mice) post GalN/LPS ([3]; 10 mg/kg (8.6 μmole/kg) IP 30 min before GalN/LPS): more than 23 hours |
